In publication PMC7932537, “Quantitative profiling of protease specificity” (PLoS Computational Biology, 2021):

Columns and labels:
[1] = test system: MMP-2; test: Substrate phage display with NGS: relative probability (RP) of P3-P1' tetramer clusters; format: biochemical, human; settings: for MMP2 relative probability (RP): MMP2 tetramers from unique substrates, unrounded values; for relative probability (RP) of matching tetramer: P3-P1' tetramer matching the MS detected MMP2 cleavage sequence, RP_above_4.5
[2] = test system: MMP-9; test: as above; format: biochemical, human; settings: for corresponding MMP9 relative probability (RP): MMP2 tetramers from unique substrates, RP of same tetramer for MMP9
[3] = RP according to MMP2, P3-P1' tetramer of unique physiologic MMP2 substrates from MEROPS
[4] = RP of the P3-P1' tetramer, MMP2 substrate phage display/NGS, tetramers of physiologic MEROPS substrates common to MMP2 and MMP9
[5] = RP according to MMP9, P3-P1' tetramer of unique physiologic MMP9 substrates from MEROPS
[6] = RP of the P3-P1' tetramer, MMP9 substrate phage display/NGS, tetramers of physiologic MEROPS substrates common to MMP2 and MMP9
[7] = RP of the P3-P1' tetramer cluster contained in the hexamer, 200 nM MMP-2, 2 h, 37°C, two rounds of selection
[8] = MMP9, RP of the P3-P1' tetramer contained in the hexamer substrate (substrate phage display, NGS)
[9] = MMP2, RP of matching P3-P1' tetramer, common set of MMP2-9 selectome, RP above KL threshold
[10] = RP of matching tetramer, common MMP2-9 selectome
[11] = MMP9, RP of matching P3-P1' tetramer, common set of MMP2-9 selectome
[12] = MMP9, RP of the P3-P1' tetramer matching the MS detected cleavage, RP above 4.7, substrate phage display with NGS
[13] = RP of matching tetramer, common MMP2-9 selectome, RP above KL threshold
[14] = normalized RP of matching tetramer, unique part of MMP2 selectome

IGLM
MMP2 relative probability (RP) [1]: 19.5116 | Relative probability (RP) rank [1, 3]: 1895 | relative probability (RP) [1, 3]: 19.51 | relative probability (RP) (acc.to MMP2) [1, 4]: 19.51 | corresponding MMP9 relative probability (RP) [2]: 2.913 | Relative probability (RP) rank [2, 5]: 7888 | relative probability (RP) [2, 5]: 2.91 | relative probability (RP) (acc.to MMP9) [2, 6]: 2.91

GPRGLK
relative probability (RP) [1, 7]: 35.2511 | relative probability (RP) [2, 8]: 47.3825

PGPIGI
relative probability (RP) [1, 7]: 31.281 | relative probability (RP) [2, 8]: 46.0584

VHPSAV
relative probability (RP) [1, 7]: 29.6865 | relative probability (RP) [2, 8]: 36.5372

GPEGMK
relative probability (RP) [1, 7]: 19.9209 | relative probability (RP) [2, 8]: 31.8598

LFGL
relative probability (RP) (acc.to MMP2) [1, 9]: 12.87 | relative probability (RP) of matching tetramer [1]: 12.87 | relative probability (RP) (acc.to MMP2) [1, 10]: 12.87 | relative probability (RP) (acc.to MMP9) [2, 11]: 14.17 | relative probability (RP) [2, 12]: 14.17 | relative probability (RP) (acc.to MMP9) [2, 13]: 14.17

GPARPY
relative probability (RP) [1, 7]: 20.5004 | relative probability (RP) [2, 8]: 36.8874

NPMPIR
relative probability (RP) [1, 7]: 26.0717 | relative probability (RP) [2, 8]: 45.0822

PMFI
relative probability (RP) (acc.to MMP2) [1, 10]: 8.26 | relative probability (RP) [2, 12]: 35.87 | relative probability (RP) (acc.to MMP9) [2, 13]: 35.87

PVAV
relative probability (RP) (acc.to MMP2) [1, 9]: 27.53 | relative probability (RP) of matching tetramer [1]: 27.53 | relative probability (RP) (acc.to MMP2) [1, 10]: 27.53 | relative probability (RP) (acc.to MMP9) [2, 11]: 32.82 | relative probability (RP) [2, 12]: 32.82 | relative probability (RP) (acc.to MMP9) [2, 13]: 32.82

QSPINL
relative probability (RP) [1, 7]: 31.6393 | relative probability (RP) [2, 8]: 44.8884

APGF
relative probability (RP) (acc.to MMP2) [1, 4]: 0.64 | relative probability (RP) (acc.to MMP9) [2, 6]: 0.56

APGL
MMP2 relative probability (RP) [1]: 7.849 | Relative probability (RP) rank [1, 3]: 5899 | relative probability (RP) [1, 3]: 7.85 | relative probability (RP) (acc.to MMP2) [1, 4]: 7.85 | corresponding MMP9 relative probability (RP) [2]: 3.776 | Relative probability (RP) rank [2, 5]: 6833 | relative probability (RP) [2, 5]: 3.78 | relative probability (RP) (acc.to MMP9) [2, 6]: 3.78

ARAY
relative probability (RP) (acc.to MMP2) [1, 9]: 20.14 | relative probability (RP) of matching tetramer [1]: 20.14 | relative probability (RP) (acc.to MMP2) [1, 10]: 20.14 | relative probability (RP) (acc.to MMP9) [2, 11]: 36.14 | relative probability (RP) [2, 12]: 36.14 | relative probability (RP) (acc.to MMP9) [2, 13]: 36.14

SPMAFS
relative probability (RP) [1, 7]: 29.2698 | relative probability (RP) [2, 8]: 45.5118

PLQLQT
relative probability (RP) [1, 7]: 30.1017 | relative probability (RP) [2, 8]: 45.7856

AMPM
relative probability (RP) (acc.to MMP2) [1, 9]: 8.51 | relative probability (RP) of matching tetramer [1]: 8.51 | relative probability (RP) (acc.to MMP2) [1, 10]: 8.51 | relative probability (RP) (acc.to MMP9) [2, 11]: 26.95 | relative probability (RP) [2, 12]: 26.95 | relative probability (RP) (acc.to MMP9) [2, 13]: 26.95

LGRY
relative probability (RP) of matching tetramer [1]: 17.67 | relative probability (RP) (acc.to MMP2) ([1]; RP of matching tetramer, unique part of MMP2 selectome, RP above KL threshold): 17.67 | normalized RP - MMP2 [1, 14]: 0.4838 | relative probability (RP) (acc.to MMP9) ([2]; RP of matching tetramer, unique part of MMP2 selectome): 1.95 | normalized RP - MMP9 [2, 14]: 0.03723

MGPLGQ
relative probability (RP) [1, 7]: 28.8115 | relative probability (RP) [2, 8]: 44.3652

WPSPFR
relative probability (RP) [1, 7]: 30.9274 | relative probability (RP) [2, 8]: 37.3217

GEPFEL
relative probability (RP) [1, 7]: 15.9169 | relative probability (RP) [2, 8]: 44.9497

TAPSSQ
relative probability (RP) [1, 7]: 25.0042 | relative probability (RP) [2, 8]: 27.1142

AKAL
relative probability (RP) (acc.to MMP2) [1, 9]: 22.96 | relative probability (RP) of matching tetramer [1]: 22.96 | relative probability (RP) (acc.to MMP2) [1, 10]: 22.96 | relative probability (RP) (acc.to MMP9) [2, 11]: 37.29 | relative probability (RP) [2, 12]: 37.29 | relative probability (RP) (acc.to MMP9) [2, 13]: 37.29

PPGE
relative probability (RP) (acc.to MMP2) [1, 4]: 0 | relative probability (RP) (acc.to MMP9) [2, 6]: 0.11

PKWM [P3-P1' tetramer cluster]
avg_RP ([1]; MMP2 - no binning, average relative probability of the tetramer, redundant tetramers averaged out): 23.7433 | relative probability (RP) ([2]; tetramer probability in MMP9 set / naive library, 200 nM protease, 2 h, 37°C): 51.5185

PVNV
relative probability (RP) (acc.to MMP2) [1, 10]: 19.63 | relative probability (RP) [2, 12]: 24.66 | relative probability (RP) (acc.to MMP9) [2, 13]: 24.66

PKGQ
relative probability (RP) (acc.to MMP2) [1, 4]: 21.45 | relative probability (RP) (acc.to MMP9) [2, 6]: 35.93
